From patent publication US20210253598A1, “ARYL ANNULATED MACROCYCLIC INDOLE DERIVATIVES” (priority 2017, published 2021)
Structures can show the parent of a compound that is named as a salt. Where two headings read alike, the source gives them in different places.

Columns and labels:
SUDHL10 [1] = assay: Induction of cytotoxicity in SUDHL10 cells, CellTiter-Glo (Assay 6); format: cell-based
Experimental: (§1) Induction of Cytotoxicity Upon Treatment of Cells with Selected Compounds
(§2) In principle, compounds that induce apoptosis will concomitantly induce cell cytotoxicity. Therefore, cytotoxicity assays were run in parallel in SUDHL5 and SUDHL10 cells.
(§3) As a control, medium without cells was also added to the plate. Cells were incubated in a humidified incubator at 37° C. overnight. […] Rim wells were excluded. The cells were incubated for 5 hours in a humidified incubator at 37° C. After this incubation, 30 μl of CellTiter-Glo® Luminescent Cell Viability reagent (Promega, G7573) was added to each well using the Multidrop Combi Reagent Dispenser, followed by 15 minutes incubation on a shaker at room temperature. Finally, luminescence was read at 0.1 ms, with a gain of 3000 using the PHERAstar FS microplate reader (BMG Labtech).

SUDHL5 [2] = assay: Induction of caspase-3/7 activity in SUDHL5 cells (Assay 4); format: cell-based; details: SUDHL5, 3 hours treatment, Caspase-Glo 3/7, median, read-out: Caspase SUDHL5 [M] (median)
Experimental: (§4) Induction of Caspase-3/7 Activity Upon Treatment of Cells with Selected Compounds
(§5) The BH3-domain of MCL-1 sequesters pro-apoptotic proteins, thereby inhibiting apoptosis. In contrast, MCL-1 inhibitors are expected to antagonize this effect leading to an increase in apoptosis, which can be determined by measuring the activity of caspase-3/7.
(§6) The activity of caspase-3/7 was determined in DLBCL (Diffuse large B-cell lymphoma) cell lines (SUDHL5 and SUDHL10) upon treatment with different compounds, using the Caspase-Glo® 3/7 reagent from Promega (G8092).
(§7) As a control, medium without cells was also added to the plate. Cells were incubated in a humidified incubator at 37° C. overnight.
(§8) Rim wells were excluded. The cells were incubated for 3 hours in a humidified incubator at 37° C. After this incubation, 30 μl of Caspase-Glo® 3/7 reagent (Promega G8092) was added to each well using the Multidrop Combi Reagent Dispenser, followed by 1 hour incubation at 37° C. Finally, luminescence was read at 0.1 ms, with a gain of 3000 using the PHERAstar FS microplate reader (BMG Labtech).
(§9) For the evaluation of the results, the background measured with “medium-only” was subtracted from all other values. Then, the values were normalized to DMSO-only treated cells (every value was divided by the mean of the DMSO control).

SUDHL5 [3] = assay: Induction of cytotoxicity in SUDHL5 cells, CellTiter-Glo (Assay 6); format: cell-based
Experimental: as §1, §2, §3

SUDHL10 [4] = assay: Induction of caspase-3/7 activity in SUDHL10 cells (Assay 4); format: cell-based; details: SUDHL10, 3 hours treatment, Caspase-Glo 3/7, median, read-out: Caspase SUDHL10 [M] (median)
Experimental: as §4, §5, §6, §7, §8, §9

MCL-1 = MCL-1 (Homo sapiens, UniProt Q07820, K194A/K197A/R201A); assay: Protein-protein interaction assay MCL-1/Noxa BH3 peptide, TR-FRET (MCL-1 assay, Assay 1); format: binding; details: MCL-1 Assay [M] (median), MBP-MCL-1 / Noxa BH3 peptide
MCL-1, sequence (Q07820 173-321 K194A/K197A/R201A, looked up): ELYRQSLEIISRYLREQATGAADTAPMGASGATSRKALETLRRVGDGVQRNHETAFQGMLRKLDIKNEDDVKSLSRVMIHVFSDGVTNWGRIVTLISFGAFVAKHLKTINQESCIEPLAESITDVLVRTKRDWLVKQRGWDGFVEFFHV
Experimental: The dose-dependent inhibition by the compounds described in this invention of the interaction between MCL-1 and the BH3 domain of Noxa (both human) was determined using a steady state binding competition assay with time-resolved fluorescence energy transfer (TR-FRET) readout. For that purpose MCL-1 (amino acids 173-321, N-terminal fused to Maltose Binding Protein (MBP), SEQ ID 1) and a synthetic Noxa BH3-derived peptide of sequence Biotin-PEG2-PEG2-PAELEVE-Nva-[…]-amide (SEQ ID 2) served as protein receptor and tracer ligand respectively. The MBP-MCL-1 was purchased from Beryllium (Bedford, Mass., USA). The expression and purification of this protein construct has been described elsewhere (DOI:10.1371/journal.pone.0125010). The Noxa BH3-derived peptide can be obtained from e.g. Biosyntan (Berlin, Germany).
For that, 100-fold concentrated DMSO solutions were prepared by serial dilutions (1:3.4) of a 2 mM stock solution in a clear, 384-well microtiter plate (Greiner Bio-One, Frickenhausen, Germany). From there, 50 nl were transferred in a dark test plate (Greiner Bio-One, Frickenhausen, Germany). The assay was initiated by addition of 2 μl of a 2,5-fold concentrated MBP-MCL-1 solution (usually for a 1 nM end concentration in 5 μl reaction volume) in aqueous assay buffer [50 mM Tris/HCl pH 7, 100 mM sodium chloride (NaCl), 50 mM potassium fluoride (KF), 0.005% Tween-20, 2 mM DTT, 0.1% bovine gamma globulin (BGG)] to the compounds in the assay plate. This was followed by a 10-minute incubation step at 22° C. for pre-equilibration of the putative complex between MBP-MCL-1 and the compounds.
The mixture was incubated in the dark for one hour at 22° C. and then overnight at 4° C. The formation of MCL-1/Noxa complexes was determined by measuring the resonance energy transfer of the anti-MBP-Eu-cryptate antibody to the streptavidin-XL665 present in the reaction.
The resulting data (ratio) were normalized, taking 0% inhibition as the mean value of control measurements (usually 32 data points) where all reagents were included. In this case 50 nl DMSO were used instead of compounds. […] IC50 values were determined by regression analysis based on a 4 parameter equation (minimum, maximum, IC50, Hill; Y=Max+(Min−Max)/(1+(X/IC50)^Hill) using the Screener Software (Genedata).

[5] = SUDHL10, 5 hours incubation, median, read-out: Cytotox SUDHL10 [M] (median)
[6] = SUDHL5, 5 hours incubation, median, read-out: Cytotox SUDHL5 [M] (median)
[7] = Homo sapiens, SU-DHL10, 5 h, SUDHL10, 5 hours incubation, median, read-out: Cytotox SUDHL10 [M] (median)

| SMILES | IC50 (SUDHL10 [1]; [5]) [M] | EC50 (SUDHL5 [2]) [M] | IC50 (SUDHL5 [3]; [6]) [M] | EC50 (SUDHL10 [4]) [M] | IC50 (MCL-1) [M] | IC50 (SUDHL10 [1]; [7]) [M] | EC50 (SUDHL5 [2]; Homo sapiens, SU-DHL-5, 3 h) [M] | EC50 (SUDHL10 [4]; Homo sapiens, SU-DHL10, 3 h) [M] | IC50 (SUDHL10 [1]; read-out: Cytotox SUDHL10 [M] (median), SUDHL10, 5 hours incubation) | IC50 (SUDHL5 [3]; read-out: Cytotox SUDHL5 [M] (median), SUDHL5, 5 hours incubation) |
| --- | --- | --- | --- | --- | --- | --- | --- | --- | --- | --- |
| Cc1c2c(nn1C)CN(S(=O)(=O)c1ccc(N3CCOCC3)nc1)Cc1ccccc1Cn1c(C(=O)O)c(CCCOc3cccc4ccccc34)c3cccc-2c31 (single isomer, unassigned; enantiomer 1) [Example 18, (+)-4,5-Dimethyl-8-{[6-(morpholin-4-yl)pyridin-3-yl]sulfonyl}-17-[3-(naphthalen-1-yloxy)propyl]-7,8,9,14-tetrahydro-5H-indolo[1,7-bc]pyrazolo[4,3-e][2,8]benzodiazacycloundecine-16-carboxylic Acid (Enantiomer 1)] | 3.8e-06 | 9.2e-07 | 1.4e-06 | 5.2e-06 | 2.9e-08 | – | – | – | – | – |
| Cc1c2c(nn1C)CN(C(=O)CC1CCOCC1)Cc1ccccc1Cn1c(C(=O)O)c(CCCOc3cccc4ccccc34)c3cccc-2c31 (single isomer, unassigned; enantiomer 1) [Example 22, (−)-4,5-Dimethyl-17-[3-(naphthalen-1-yloxy)propyl]-8-(tetrahydro-2H-pyran-4-ylacetyl)-7,8,9,14-tetrahydro-5H-indolo[1,7-bc]pyrazolo[4,3-e][2,8]benzodiazacycloundecine-16-carboxylic Acid (Enantiomer 1)] | > 3.3e-05 | 1.4e-05 | 1.7e-05 | > 3.3e-05 | 6.5e-07 | – | – | – | – | – |
| Cc1c2c(nn1C)CN(C(=O)NC1CCOCC1)Cc1ccccc1Cn1c(C(=O)O)c(CCCOc3cccc4ccccc34)c3cccc-2c31 (single isomer, unassigned; enantiomer 1) [Example 25, (+)-4,5-Dimethyl-17-[3-(naphthalen-1-yloxy)propyl]-8-(tetrahydro-2H-pyran-4-ylcarbamoyl)-7,8,9,14-tetrahydro-5H-indolo[1,7-bc]pyrazolo[4,3-e][2,8]benzodiazacycloundecine-16-carboxylic Acid (Enantiomer 1)] | – | – | > 3.3e-05 | – | 2.6e-07 | > 3.3e-05 | > 3.3e-05 | > 3.3e-05 | – | – |
| Cc1c2c(nn1C)CN(C(=O)NCC1CCOCC1)Cc1ccccc1Cn1c(C(=O)O)c(CCCOc3cccc4ccccc34)c3cccc-2c31 (single isomer, unassigned; enantiomer 1) [Example 28, (+)-4,5-Dimethyl-17-[3-(naphthalen-1-yloxy)propyl]-8-[(tetrahydro-2H-pyran-4-ylmethyl)carbamoyl]-7,8,9,14-tetrahydro-5H-indolo[1,7-bc]pyrazolo[4,3-e][2,8]benzodiazacycloundecine-16-carboxylic Acid (Enantiomer 1)] | – | > 3.3e-05 | > 3.3e-05 | – | 2.8e-07 | > 3.3e-05 | – | > 3.3e-05 | – | – |
| Cc1c2c(nn1C)CNCc1ccccc1Cn1c(C(=O)O)c(CCCOc3cccc4ccccc34)c3cccc-2c31 (single isomer, unassigned; enantiomer 2) [Example 13, 4,5-Dimethyl-17-[3-(naphthalen-1-yloxy)propyl]-7,8,9,14-tetrahydro-5H-indolo[1,7-bc]pyrazolo-[4,3-e][2,8]benzodiazacycloundecine-16-carboxylic acid-Trifluoroacetic Acid Salt (Enantiomer 2)] | – | 1.4e-05 | – | > 3.3e-05 | 1.7e-07 | – | – | – | 2.5e-05 | 1.7e-05 |
| Cc1c2c(nn1C)CN(S(=O)(=O)c1ccc(N3CCOCC3)nc1)Cc1ccccc1Cn1c(C(=O)O)c(CCCOc3cccc4ccccc34)c3cccc-2c31 (single isomer, unassigned; enantiomer 2) [Example 19, (−)-4,5-Dimethyl-8-{[6-(morpholin-4-yl)pyridin-3-yl]sulfonyl}-17-[3-(naphthalen-1-yloxy)propyl]-7,8,9,14-tetrahydro-5H-indolo[1,7-bc]pyrazolo[4,3-e][2,8]benzodiazacycloundecine-16-carboxylic Acid (Enantiomer 2)] | > 3.3e-05 | 1.7e-05 | 2.3e-05 | > 3.3e-05 | 9.4e-07 | – | – | – | – | – |
| Cc1c2c(nn1C)CN(C(=O)CC1CCOCC1)Cc1ccccc1Cn1c(C(=O)O)c(CCCOc3cccc4ccccc34)c3cccc-2c31 (single isomer, unassigned; enantiomer 2) [Example 23, (+)-4,5-Dimethyl-17-[3-(naphthalen-1-yloxy)propyl]-8-(tetrahydro-2H-pyran-4-ylacetyl)-7,8,9,14-tetrahydro-5H-indolo[1,7-bc]pyrazolo[4,3-e][2,8]benzodiazacycloundecine-16-carboxylic Acid (Enantiomer 2)] | 1.1e-05 | 4.2e-06 | 4.4e-06 | 1.2e-05 | 3.9e-08 | – | – | – | – | – |
| Cc1c2c(nn1C)CN(C(=O)NC1CCOCC1)Cc1ccccc1Cn1c(C(=O)O)c(CCCOc3cccc4ccccc34)c3cccc-2c31 (single isomer, unassigned; enantiomer 2) [Example 26, (−)-4,5-Dimethyl-17-[3-(naphthalen-1-yloxy)propyl]-8-(tetrahydro-2H-pyran-4-ylcarbamoyl)-7,8,9,14-tetrahydro-5H-indolo[1,7-bc]pyrazolo[4,3-e][2,8]benzodiazacycloundecine-16-carboxylic Acid (Enantiomer 2)] | > 3.3e-05 | 1.8e-05 | 1.6e-05 | > 3.3e-05 | 3.8e-08 | – | – | – | – | – |
| Cc1c2c(nn1C)CN(C(=O)NCC1CCOCC1)Cc1ccccc1Cn1c(C(=O)O)c(CCCOc3cccc4ccccc34)c3cccc-2c31 (single isomer, unassigned; enantiomer 2) [Example 29, (−)-4,5-Dimethyl-17-[3-(naphthalen-1-yloxy)propyl]-8-[(tetrahydro-2H-pyran-4-ylmethyl)carbamoyl]-7,8,9,14-tetrahydro-5H-indolo[1,7-bc]pyrazolo[4,3-e][2,8]benzodiazacycloundecine-16-carboxylic Acid (Enantiomer 2)] | 2.3e-05 | 1e-05 | 1.4e-05 | 2.3e-05 | 3e-08 | – | – | – | – | – |
